According to publication PMC3208381 (European journal of medicinal chemistry, 2011):

Target: HCV NS5B polymerase (NS5BCΔ21) (Hepatitis C virus genotype 1b, UniProt P26663)
Test: NS5B inhibition assay
Assay type: biochemical
Details: for fold decrease in activity relative to thiophene parent compound 5a: NS5B IC50 compared with compound 5a; for fold enhancement of inhibitory activity relative to 5-methyl analog 6a: NS5B IC50 compared with compound 6a; for fold more active than 15a: NS5B IC50 compared with compound 15a

With `O=C(O)/C(O)=C/C(=O)c1cc2cc(Br)ccc2o1` [Compound 3a, 4-(5-Bromobenzofuran-2-yl)-2-hydroxy-4-oxobut-2-enoic acid] as the compound, how does the “fold improvement in inhibitory activity over compound 2a” value (NS5B IC50 compared with compound 2a) read?
Its value is ~ 3.5 fold.

How did the “fold increase in inhibitory activity over compound 4a” value (NS5B IC50 compared with compound 4a) turn out when `O=C(O)/C(O)=C/C(=O)c1cccs1` [Compound 5a, 2-Hydroxy-4-(thiophen-2-yl)-4-oxobut-2-enoic acid] was run?
Its value is ~ 2.2 fold.

How did the “fold decrease in activity relative to thiophene parent compound 5a” value turn out when `Cc1ccc(C(=O)/C=C(\O)C(=O)O)s1` [Compound 6a, 2-Hydroxy-4-(5-methylthiophen-2-yl)-4-oxobut-2-enoic acid] was run?
Its value is “approximately 3 fold”.

For `O=C(O)/C(O)=C/C(=O)c1ccc(Cl)s1` [Compound 7a, 2-Hydroxy-4-(5-chlorothiophene-2-yl)-4-oxobut-2-enoic acid], which “fold enhancement of inhibitory activity relative to 5-methyl analog 6a” value is on record?
Its value is ~ 2 fold.

For `O=C(O)/C(O)=C/C(=O)c1ccc(Br)s1` [Compound 8a, 4-(5-Bromothiophen-2-yl)-2-hydroxy-4-oxobut-2-enoic acid], which “fold enhancement of inhibitory activity relative to 5-methyl analog 6a” value is on record?
Its value is ~ 2 fold.

With `Cc1csc(C(=O)/C=C(\O)C(=O)O)c1` [Compound 10a, 2-Hydroxy-4-(4-methylthiophen-2-yl)-4-oxobut-2-enoic acid] as the compound, how does the “fold enhancement of inhibitory activity relative to 5-methyl analog 6a” value read?
Its value is ~ 2 fold.

With `Cc1ccsc1C(=O)/C=C(\O)C(=O)O` [Compound 11a, 2-Hydroxy-4-(3-methylthiophen-2-yl)-4-oxobut-2-enoic acid] as the compound, how does the “fold enhancement of inhibitory activity relative to 5-methyl analog 6a” value read?
Its value is ~ 7 fold.

How did the “fold decrease in activity relative to thiophene parent compound 5a” value turn out when `O=C(O)/C(O)=C/C(=O)c1nccs1` [Compound 12a, 2-Hydroxy-4-(4-thiazole-2-yl)-4-oxobut-2-enoic acid] was run?
The value was ~ 1.8 fold.

How did the “fold more active than 15a” value turn out when `O=C(O)/C(O)=C/C(=O)c1ccccc1[N+](=O)[O-]` [Compound 16a, 2-Hydroxy-4-(2-nitrophenyl)-4-oxobut-2-enoic acid] was run?
The value was ~ 2 fold.

Which “fold more active than 15a” value does the source give for `O=C(O)/C(O)=C/C(=O)c1ccccc1F` [Compound 17a, 4-(2-Fluorophenyl)-2-hydroxy-4-oxobut-2-enoic acid] here?
Its value is ~ 2 fold.
